Test results as given in PMC11563196 (Chemical communications (Cambridge, England), 2024).

Experiments:
HDAC2 [1] = system: HDAC2; parameters: method as in PMID 35008795; conditions: cited from earlier work
HDAC3 [2] = system: HDAC3; parameters: method as in PMID 35008795; conditions: cited from earlier work
HDAC1 [3] = system: HDAC1; parameters: method as in PMID 35008795; conditions: cited from earlier work
HDAC1 [4] = biological target: T1, HDAC1 (Homo sapiens, UniProt Q13547); assay: HDAC1 abundance by quantitative fluorescence western blotting in HCT116 cells; format: cell-based; conditions: for Dose response degradation of HDAC1: 24 h, 0.01-10 μM, two independent biological replicates; for HDAC1 abundance: at 0.1 μM and 1 μM
T1 construct: endogenous in cells; host or cells: HCT116 (ATCC CCL-247)
T1 sequence (Q13547 whole entry): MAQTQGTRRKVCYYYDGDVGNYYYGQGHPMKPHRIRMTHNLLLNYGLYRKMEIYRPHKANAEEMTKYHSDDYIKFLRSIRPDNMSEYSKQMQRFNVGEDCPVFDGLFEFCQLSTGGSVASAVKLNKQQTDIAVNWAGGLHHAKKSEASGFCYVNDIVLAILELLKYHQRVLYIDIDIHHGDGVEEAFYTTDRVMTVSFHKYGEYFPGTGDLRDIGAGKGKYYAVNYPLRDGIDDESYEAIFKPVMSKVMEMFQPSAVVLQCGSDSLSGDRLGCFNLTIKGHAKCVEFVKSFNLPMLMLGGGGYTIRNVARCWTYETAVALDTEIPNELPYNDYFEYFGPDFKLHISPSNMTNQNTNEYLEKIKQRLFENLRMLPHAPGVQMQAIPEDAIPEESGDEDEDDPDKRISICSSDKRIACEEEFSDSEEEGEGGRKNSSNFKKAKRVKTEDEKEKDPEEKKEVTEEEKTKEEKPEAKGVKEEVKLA
Description: (§1) We screened these compounds side-by side with JPS004 a VHL based HDAC1–3 targeting PROTAC and the HDAC1–3 inhibitor CI-994 as control compounds for degradation and inhibition, respectively. […] HCT116 cells were incubated for 24 hours with the compounds and HDAC1, HDAC2 and HDAC3 abundance was quantified by fluorescence western blotting. We also determined the effects on Histone 3 Lysine 56 acetylation (H3K56ac) levels as a secondary assay, for in-cell HDAC inhibition or degradation. […] Similar to our previous observations with VHL recruiting PROTACs, HDAC2 reduction was less affected. It was noteworthy that 7 also incorporated a 12 carbon alkyl linker, which has been an effective linker in our previous studies.[10],[11] Pleasingly, compounds 3–8 also had more modest effects on HDAC3 abundance compared to previously reported VHL recruiting PROTACs.[6]–[13] […] However, while surprising, it is not unprecedented as we and others have observed similar effects on histone acetylation markers with HDAC3 targeting PROTACs.[11],[13],[18]
(§2) Fig. 3 HDAC1, HDAC2, HDAC3 abundance were determined by quantitative western blotting with antibodies for HDAC1, HDAC2, HDAC3 in HCT116 cells after 24 hours. H3K56 acetylation levels were also determined by quantitative western blotting with an antibody for H3K56ac, and the fold change was compared between compounds at 10 μM, normalising treatment with inhibitor CI 994 = 1.0.
(§3) Supplementary Information: Biology
(§4) 1. Cell Culture, Compound Handling and Western Blotting Protocols
(§5) The HCT116 cell line used in this study was obtained from ATCC (CCL-247). HCT116 human colon carcinoma cells were grown in a Dulbecco’s modified Eagle medium (GIBCO, 41965-039) supplemented with 10% FBS (Sigma) and 1X glutamine/penicillin/streptomycin (GIBCO, 10378−016). Cells were incubated at 37 °C with 5% CO2. Cells were treated with compounds at indicated concentrations (0.01−10 μM). All compounds were made up to a standard solution of 10 mM in DMSO, serially diluted in DMSO, then added to fresh medium (5 mL total) to afford the concentrations stated (0.01−10 μM), with a final DMSO volume of […]
HCT116 cells were seeded into 6-well plates (4 × 10^5 cells/well) for 24 hours and then treated with DMSO or compounds at the indicated concentrations in fresh medium (5 mL total). After 24 hours treatment time, the cells were harvested and then lysed in lysis buffer (50 mM Tris-HCl, 150 mM NaCl, 0.5% NP-40, 0.5% Triton X-100) supplemented with a protease inhibitor (Sigma, P8340). The suspension was incubated on ice for 30 min, then centrifuged (18,000 rcf, 15 min, 4 °C) and the supernatant collected. Protein concentrations were quantified via Bradford Assay using Protein Assay Dye Reagent Concentrate (BIO-RAD). […] Western blots were run on NuPAGE 4−12% bis−Tris gels with 30 μg of protein or 10 μL of ac id-extracted histone loaded per lane, using NuPAGE LDS sample buffer (4X). PageRuler Plus Prestained Ladder was used for size standards. After gel electrophoresis at 140 V for 90 min, the separated proteins were transferred onto a nitrocellulose membrane at 30 V for 60 min. The membranes were probed with primary antibodies (as indicated below) for 60−90 min. Blots were developed with complimentary IRDye®-conjugated secondary antibodies, and the bands were visualized using an Odyssey infrared imaging system. Image processing and band intensity quantification were performed using Image Studio Lite.
(§6) 2. Western Blotting Results
(§7) 2.1. Western Blotting Analysis of Compounds 3-15 from Initial Screen
(§8) Figure S1. Western blotting of HDAC1/2/3 proteins in HCT116 cells treated with compounds 3-15.
(§9) (1 picture or pasted object on this page, not shown here)

HDAC2 [5] = biological target: T2, HDAC2 (Homo sapiens, UniProt Q92769); assay: HDAC2 abundance by quantitative fluorescence western blotting in HCT116 cells; format: cell-based; conditions: for Dose response degradation of HDAC2: 24 h, 0.01-10 μM, two independent biological replicates; for HDAC2 abundance / degradation / HDAC2 abundance: initial screen, 24 hours; for HDAC2 abundance: at 0.1 μM and 1 μM
T2 construct: endogenous in cells; host or cells: HCT116 (ATCC CCL-247)
T2 sequence (Q92769 whole entry): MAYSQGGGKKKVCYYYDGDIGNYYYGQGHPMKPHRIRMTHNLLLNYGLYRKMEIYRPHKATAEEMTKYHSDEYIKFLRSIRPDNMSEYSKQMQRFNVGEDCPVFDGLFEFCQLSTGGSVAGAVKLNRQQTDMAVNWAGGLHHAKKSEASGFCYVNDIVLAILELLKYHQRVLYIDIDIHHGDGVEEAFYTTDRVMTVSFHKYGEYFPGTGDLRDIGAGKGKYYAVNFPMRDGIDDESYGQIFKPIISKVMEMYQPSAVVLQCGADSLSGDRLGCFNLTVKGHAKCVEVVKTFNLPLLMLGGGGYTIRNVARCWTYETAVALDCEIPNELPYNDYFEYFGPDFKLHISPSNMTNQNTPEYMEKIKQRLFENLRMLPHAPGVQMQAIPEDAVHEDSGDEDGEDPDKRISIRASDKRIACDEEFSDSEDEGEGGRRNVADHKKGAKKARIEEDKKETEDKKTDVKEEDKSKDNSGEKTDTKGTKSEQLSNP
Description: as §1, §2, §3, §4, §5
(§10) HCT116 cells were seeded into 6-well plates (4 × 10^5 cells/well) for 24 hours and then treated with DMSO or compounds at the indicated concentrations in fresh medium (5 mL total). After 24 hours treatment time, the cells were harvested and then lysed in lysis buffer (50 mM Tris-HCl, 150 mM NaCl, 0.5% NP-40, 0.5% Triton X-100) supplemented with a protease inhibitor (Sigma, P8340). The suspension was incubated on ice for 30 min, then centrifuged (18,000 rcf, 15 min, 4 °C) and the supernatant collected. Protein concentrations were quantified via Bradford Assay using Protein Assay Dye Reagent Concentrate (BIO-RAD). For histone extraction, an equal volume of 0.4 N H2SO4 was added to the pellets, and the extracts were placed at 4 °C overnight, centrifuged (18,000 rcf, 15 min, 4 °C), then the supernatant (histone extract) collected.
(§11) Western blots were run on NuPAGE 4−12% bis−Tris gels with 30 μg of protein or 10 μL of ac id-extracted histone loaded per lane, using NuPAGE LDS sample buffer (4X). PageRuler Plus Prestained Ladder was used for size standards. After gel electrophoresis at 140 V for 90 min, the separated proteins were transferred onto a nitrocellulose membrane at 30 V for 60 min. The membranes were probed with primary antibodies (as indicated below) for 60−90 min. Blots were developed with complimentary IRDye®-conjugated secondary antibodies, and the bands were visualized using an Odyssey infrared imaging system. Image processing and band intensity quantification were performed using Image Studio Lite.
as §6, §7, §8, §9

H3K56ac = assay: Histone 3 Lysine 56 acetylation (H3K56ac) levels by quantitative western blotting in HCT116 cells; format: cell-based, human; conditions: for H3K56 acetylation levels: rescreen with methylated controls (Fig. 4C); for H3K56ac levels: initial screen, HCT116 cells, 24 hours, fold change compared at 10 μM
Description: as §1, §2, §3, §4, §5, §10
Western blots were run on NuPAGE 4−12% bis−Tris gels with 30 μg of protein or 10 μL of ac id-extracted histone loaded per lane, using NuPAGE LDS sample buffer (4X). PageRuler Plus Prestained Ladder was used for size standards. After gel electrophoresis at 140 V for 90 min, the separated proteins were transferred onto a nitrocellulose membrane at 30 V for 60 min. The membranes were probed with primary antibodies (as indicated below) for 60−90 min. […] Image processing and band intensity quantification were performed using Image Studio Lite. […]

HDAC3 [6] = biological target: T3, HDAC3 (Homo sapiens, UniProt O15379); assay: HDAC3 abundance by quantitative fluorescence western blotting in HCT116 cells; format: cell-based; conditions: for Dose response degradation of HDAC3: 24 h, 0.01-10 μM, two independent biological replicates; for HDAC3 abundance / degradation: initial screen, 24 hours
T3 construct: endogenous in cells; host or cells: HCT116 (ATCC CCL-247)
T3 sequence (O15379 whole entry): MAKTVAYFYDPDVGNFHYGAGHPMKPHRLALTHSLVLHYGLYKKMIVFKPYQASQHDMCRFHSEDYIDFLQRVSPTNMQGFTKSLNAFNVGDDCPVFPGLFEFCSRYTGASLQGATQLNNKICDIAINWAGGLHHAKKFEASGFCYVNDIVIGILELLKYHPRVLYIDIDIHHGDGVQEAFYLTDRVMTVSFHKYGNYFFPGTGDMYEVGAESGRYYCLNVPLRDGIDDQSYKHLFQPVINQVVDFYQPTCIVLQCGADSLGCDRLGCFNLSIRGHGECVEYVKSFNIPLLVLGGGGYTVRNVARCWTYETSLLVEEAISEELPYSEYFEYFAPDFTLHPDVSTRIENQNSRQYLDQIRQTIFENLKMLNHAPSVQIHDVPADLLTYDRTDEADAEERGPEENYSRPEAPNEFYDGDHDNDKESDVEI
T3 sequence (Q9Y618 whole entry partner): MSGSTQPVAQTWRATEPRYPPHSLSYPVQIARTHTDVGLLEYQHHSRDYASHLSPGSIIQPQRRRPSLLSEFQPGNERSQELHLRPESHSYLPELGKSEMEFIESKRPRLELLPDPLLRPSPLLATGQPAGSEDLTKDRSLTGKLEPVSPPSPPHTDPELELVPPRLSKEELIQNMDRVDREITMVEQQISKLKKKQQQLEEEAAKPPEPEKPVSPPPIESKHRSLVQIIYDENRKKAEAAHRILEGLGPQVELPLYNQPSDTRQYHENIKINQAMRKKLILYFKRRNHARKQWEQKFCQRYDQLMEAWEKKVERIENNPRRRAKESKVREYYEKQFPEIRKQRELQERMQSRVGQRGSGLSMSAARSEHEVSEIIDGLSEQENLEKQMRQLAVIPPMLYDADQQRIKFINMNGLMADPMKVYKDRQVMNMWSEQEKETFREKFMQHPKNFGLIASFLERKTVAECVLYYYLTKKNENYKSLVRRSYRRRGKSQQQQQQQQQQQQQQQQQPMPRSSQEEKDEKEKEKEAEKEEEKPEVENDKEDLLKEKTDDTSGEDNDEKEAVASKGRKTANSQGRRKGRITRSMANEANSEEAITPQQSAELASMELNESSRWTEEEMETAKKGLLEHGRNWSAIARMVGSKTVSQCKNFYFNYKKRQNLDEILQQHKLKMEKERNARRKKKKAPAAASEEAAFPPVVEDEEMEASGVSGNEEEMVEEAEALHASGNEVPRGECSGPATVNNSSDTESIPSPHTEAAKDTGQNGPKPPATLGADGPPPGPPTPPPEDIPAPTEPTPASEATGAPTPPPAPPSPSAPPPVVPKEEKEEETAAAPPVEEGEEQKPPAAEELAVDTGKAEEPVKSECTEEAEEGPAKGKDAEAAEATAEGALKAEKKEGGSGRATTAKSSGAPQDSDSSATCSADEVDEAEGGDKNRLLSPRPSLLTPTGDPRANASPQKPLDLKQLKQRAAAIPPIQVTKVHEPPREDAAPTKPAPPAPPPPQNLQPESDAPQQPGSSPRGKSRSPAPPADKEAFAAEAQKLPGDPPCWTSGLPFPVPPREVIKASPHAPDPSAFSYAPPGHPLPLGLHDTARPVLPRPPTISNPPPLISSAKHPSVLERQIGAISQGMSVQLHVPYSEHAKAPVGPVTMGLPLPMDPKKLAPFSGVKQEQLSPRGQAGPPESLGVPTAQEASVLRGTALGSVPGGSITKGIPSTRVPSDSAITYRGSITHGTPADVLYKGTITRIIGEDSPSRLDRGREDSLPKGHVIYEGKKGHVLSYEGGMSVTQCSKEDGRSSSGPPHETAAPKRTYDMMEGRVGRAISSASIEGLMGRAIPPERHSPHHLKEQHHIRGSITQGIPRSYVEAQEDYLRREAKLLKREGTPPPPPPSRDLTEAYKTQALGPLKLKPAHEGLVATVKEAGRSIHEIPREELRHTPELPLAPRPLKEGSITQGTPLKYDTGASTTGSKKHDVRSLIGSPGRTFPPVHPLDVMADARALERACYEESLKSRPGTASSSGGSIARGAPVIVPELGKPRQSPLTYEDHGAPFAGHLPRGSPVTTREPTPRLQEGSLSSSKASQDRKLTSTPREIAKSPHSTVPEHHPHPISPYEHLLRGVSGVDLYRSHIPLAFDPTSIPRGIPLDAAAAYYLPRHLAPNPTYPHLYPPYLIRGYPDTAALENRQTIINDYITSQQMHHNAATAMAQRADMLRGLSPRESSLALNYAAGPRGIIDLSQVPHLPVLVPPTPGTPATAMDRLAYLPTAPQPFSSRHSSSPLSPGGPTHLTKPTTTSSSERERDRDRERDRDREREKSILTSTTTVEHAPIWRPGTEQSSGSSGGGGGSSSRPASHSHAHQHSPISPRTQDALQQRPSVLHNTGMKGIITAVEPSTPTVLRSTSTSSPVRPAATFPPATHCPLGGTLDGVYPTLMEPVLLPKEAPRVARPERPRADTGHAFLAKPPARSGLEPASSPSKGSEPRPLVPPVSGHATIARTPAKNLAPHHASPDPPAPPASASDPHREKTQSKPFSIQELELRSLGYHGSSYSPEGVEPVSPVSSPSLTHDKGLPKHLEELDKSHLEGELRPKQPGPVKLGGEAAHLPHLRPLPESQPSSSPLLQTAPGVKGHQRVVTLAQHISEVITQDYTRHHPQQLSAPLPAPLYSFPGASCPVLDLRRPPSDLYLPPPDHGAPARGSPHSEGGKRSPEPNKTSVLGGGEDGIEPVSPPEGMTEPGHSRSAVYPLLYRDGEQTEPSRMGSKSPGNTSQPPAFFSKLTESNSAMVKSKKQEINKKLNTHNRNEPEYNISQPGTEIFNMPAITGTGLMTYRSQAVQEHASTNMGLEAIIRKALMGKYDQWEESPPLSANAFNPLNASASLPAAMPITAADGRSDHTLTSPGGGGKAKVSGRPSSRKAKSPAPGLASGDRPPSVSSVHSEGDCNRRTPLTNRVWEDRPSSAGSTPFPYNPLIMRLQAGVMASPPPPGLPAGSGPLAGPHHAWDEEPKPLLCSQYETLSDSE
Description: as §1, §2, §3, §4, §5, §10, §11, §6, §7, §8, §9

HDAC3 [7] = system: HDAC3; parameters: method as in PMID 35293758; conditions: previous findings; cited from earlier work
HDAC2 [8] = system: HDAC2; parameters: method as in PMID 35293758; conditions: previous findings; cited from earlier work
HDAC1 [9] = system: HDAC1; parameters: method as in PMID 35293758; conditions: previous findings; cited from earlier work

Nc1ccc(-c2ccc(F)cc2)cc1NC(=O)c1cnc(N2CCNCC2)cn1 [Compound 1]
IC50 (HDAC2 [1]): 0.34 µM
IC50 (HDAC3 [2]): 6.7 µM
IC50 (HDAC1 [3]): 0.16 µM

Nc1ccccc1NC(=O)c1cnc(N2CCN(C(=O)CCC3CCN(c4cccc5c4C(=O)N(C4CCC(=O)NC4=O)C5=O)CC3)CC2)cn1 (stereo not shown) [Compound 5]
Dose response degradation of HDAC1 (HDAC1 [4]): dose dependent degradation
Dose response degradation of HDAC2 (HDAC2 [5]): dose dependent degradation
H3K56 acetylation levels (H3K56ac): increasing H3K56ac levels
Dose response degradation of HDAC3 (HDAC3 [6]): a hook effect was observed

Nc1ccccc1NC(=O)c1cnc(N2CCN(C(=O)CCCCCCCCCCCNc3cccc4c3C(=O)N(C3CCC(=O)NC3=O)C4=O)CC2)cn1 (stereo not shown) [Compound 7]
Dose response degradation of HDAC1 (HDAC1 [4]): clear dose dependent HDAC1 degradation
degradation selectivity (HDAC1 over HDAC3) (HDAC1 [4]; 24 hours): selective degradation of HDAC1 over HDAC3
HDAC1 degradation (HDAC1 [4]; initial screen, 24 hours, at 1 μM): greatest HDAC1 degradation
H3K56ac levels (H3K56ac): did not increase H3K56ac levels
H3K56 acetylation levels (H3K56ac): did not increase H3K56 acetylation levels
Dose response degradation of HDAC3 (HDAC3 [6]): minimal HDAC3 degradation

Nc1ccccc1NC(=O)c1cnc(N2CCN(C(=O)CCCCCCCC(=O)NCCNc3cccc4c3C(=O)N(C3CCC(=O)NC3=O)C4=O)CC2)cn1 (stereo not shown) [Compound 9]
HDAC1 abundance / degradation (HDAC1 [4]; initial screen, 24 hours): no effects
HDAC2 abundance / degradation (HDAC2 [5]): no effects
H3K56ac levels (H3K56ac): increase H3K56ac levels to greater levels than DMSO controls
HDAC3 abundance / degradation (HDAC3 [6]): no effects

Nc1ccc(-c2ccc(F)cc2)cc1NC(=O)c1cnc(N2CCN(CCCCCCNc3cccc4c3C(=O)N(C3CCC(=O)NC3=O)C4=O)CC2)cn1 (stereo not shown) [Compound 10]
HDAC1 abundance / degradation (HDAC1 [4]; initial screen, 24 hours): no effects
HDAC2 abundance / degradation (HDAC2 [5]): no effects
H3K56ac levels (H3K56ac): increase H3K56ac levels to greater levels than DMSO controls
HDAC3 abundance / degradation (HDAC3 [6]): no effects

Nc1ccc(-c2ccc(F)cc2)cc1NC(=O)c1cnc(N2CCN(C(=O)CCCCCNc3cccc4c3C(=O)N(C3CCC(=O)NC3=O)C4=O)CC2)cn1 (stereo not shown) [Compound 11]
HDAC1 abundance (HDAC1 [4]; initial screen, 24 hours): reduced
HDAC2 abundance (HDAC2 [5]): reduced
HDAC3 abundance / degradation (HDAC3 [6]): no HDAC3 degradation

Nc1ccc(-c2ccc(F)cc2)cc1NC(=O)c1cnc(N2CCN(C(=O)CCC3CCN(c4cccc5c4C(=O)N(C4CCC(=O)NC4=O)C5=O)CC3)CC2)cn1 (stereo not shown) [Compound 12]
Dose response degradation of HDAC1 (HDAC1 [4]): very similar dose dependent degradation of HDAC1 and HDAC2 to 5
degradation selectivity (HDAC1 over HDAC3) (HDAC1 [4]; 24 hours): selective degradation of HDAC1 over HDAC3
HDAC1 abundance (HDAC1 [4]; initial screen, 24 hours): reduced
Dose response degradation of HDAC2 (HDAC2 [5]): very similar dose dependent degradation of HDAC1 and HDAC2 to 5
HDAC2 abundance (HDAC2 [5]): reduced
Dose response degradation of HDAC3 (HDAC3 [6]): HDAC3 degradation was abolished
HDAC3 abundance / degradation (HDAC3 [6]): no HDAC3 degradation

Nc1ccc(-c2ccc(F)cc2)cc1NC(=O)c1cnc(N2CCN(C(=O)CCCCCCCCCCCNc3cccc4c3C(=O)N(C3CCC(=O)NC3=O)C4=O)CC2)cn1 (stereo not shown) [Compound 14]
HDAC1 abundance / degradation (HDAC1 [4]; initial screen, 24 hours): less effective at HDAC1 degradation compared to 11 and 12

Nc1ccc(-c2ccc(F)cc2)cc1NC(=O)c1cnc(N2CCN(C(=O)CCCCCCCC(=O)N3CCN(c4cccc5c4C(=O)N(C4CCC(=O)NC4=O)C5=O)CC3)CC2)cn1 (stereo not shown) [Compound 15]
HDAC1 abundance / degradation (HDAC1 [4]; initial screen, 24 hours): less effective at HDAC1 degradation compared to 11 and 12

Cc1ncsc1-c1ccc(CNC(=O)[C@@H]2C[C@@H](O)CN2C(=O)[C@@H](NC(=O)CCCCCCCCCCC(=O)Nc2ccc(C(=O)Nc3ccccc3N)cc2)C(C)(C)C)cc1 [JPS004]
HDAC3 degradation (HDAC3 [7]): HDAC3 degradation is compromised at concentrations >1 μM due to the hook effect
HDAC2 degradation (HDAC2 [8]): degrade
HDAC1 degradation (HDAC1 [9]): degrade

Cc1ncsc1-c1ccc(CNC(=O)[C@@H]2C[C@@H](O)CN2C(=O)[C@@H](NC(=O)COCCCCCCCCCOCC(=O)Nc2ccc(C(=O)Nc3ccccc3N)cc2)C(C)(C)C)cc1 [JPS016]
HDAC3 degradation (HDAC3 [7]): hook effect for HDAC3
HDAC2 degradation (HDAC2 [8]): degrade
HDAC1 degradation (HDAC1 [9]): degrade

Cc1ncsc1-c1ccc(CNC(=O)[C@@H]2C[C@@H](O)CN2C(=O)[C@@H](NC(=O)C2(F)CC2)C(C)(C)C)c(OCCCCCCCCCCCC(=O)Nc2ccc(C(=O)Nc3ccccc3N)cc2)c1 [JPS036]
HDAC3 degradation selectivity over HDAC1/2 (HDAC3 [7]): can enhance HDAC3 degradation selectivity over HDAC1/2
